Patent US8735387B2, “Oxazolopyrimidines as Edg-1 receptor agonists” (Sanofi, priority 2008, dated 2014)

The molecules below were run against T1, human Edg-1 receptor (Homo sapiens, UniProt P21453) (assay: GTP-γ-S assay using human Edg-1 receptors (scintillation proximity assay, membrane preparation from CHO Flp-In cell line)). Details: example compound at 10 μM; relative to 10 μM S1P; GTP-γ-S SPA, human Edg-1 membranes.
T1 construct: expressed in transfected cells; membrane preparation
Type: biochemical
Outline: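 Scintillation proximity GTP-γ-S binding assay measuring receptor activation. Membranes prepared from a CHO Flp-In line stably overexpressing N-terminally FLAG-tagged human Edg-1.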

T1 sequence (P21453 whole entry): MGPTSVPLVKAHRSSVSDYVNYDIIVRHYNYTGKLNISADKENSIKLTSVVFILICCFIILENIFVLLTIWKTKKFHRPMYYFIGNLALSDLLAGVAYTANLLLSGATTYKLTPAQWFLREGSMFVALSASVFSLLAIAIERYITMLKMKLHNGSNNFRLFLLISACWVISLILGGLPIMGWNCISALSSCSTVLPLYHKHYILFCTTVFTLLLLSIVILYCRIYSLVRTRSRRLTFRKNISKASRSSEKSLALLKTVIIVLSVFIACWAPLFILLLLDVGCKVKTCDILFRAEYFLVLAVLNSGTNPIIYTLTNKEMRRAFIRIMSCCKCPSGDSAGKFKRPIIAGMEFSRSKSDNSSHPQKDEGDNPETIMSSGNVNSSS

Row | SMILES | % Activation (Edg-1 receptor activation in percent of the activation by 10 μM S1P) [%]
1 | CCOc1nc(Cc2ccc(Cl)cc2)nc2oc(-c3cc(C)c(OCC(O)CN4CCOCC4)c(C)c3)nc12 (centres unmarked) [Example 236] | 102
2 | CCOc1nc(Cc2ccc(Cl)cc2)nc2oc(-c3cccc(OCC(=O)NC(C)(C)C(=O)O)c3)nc12 [Example 271] | 53
3 | CCOc1nc(Cc2ccc(Cl)cc2)nc2oc(-c3cccc(OCC(=O)N[C@@H](C)C(=O)O)c3)nc12 [Example 268] | 100
4 | CCOc1nc(Cc2ccc(Cl)cc2)nc2oc(-c3cc(C)c(OCC(=O)N4CC(C(=O)O)C4)c(C)c3)nc12 [Example 228] | 107
5 | CCCOc1nc(Cc2ccc(Cl)cc2)nc2oc(-c3cc(C)c(OCC(O)CNC(=O)CC(C)C)c(C)c3)nc12 (centres unmarked) [Example 220] | 69
6 | CCOc1nc(Cc2ccc(Cl)cc2)nc2oc(-c3cc(C)c(OCC(O)CNC4CCC(C(F)(F)F)CC4)c(C)c3)nc12 (centres unmarked) [Example 261] | 86
7 | CCCOc1nc(Cc2ccc(Cl)cc2)nc2oc(-c3cc(C)c(OCC(=O)OC)c(C)c3)nc12 [Example 248] | 89
8 | CCOc1nc(Cc2ccc(Cl)cc2)nc2oc(-c3cc(C)c(OCC(O)CNC(=O)CO)c(C)c3)nc12 (centres unmarked) [Example 258] | 97
9 | CCOc1nc(Cc2ccc(Cl)cc2)nc2oc(-c3cc(C)c(OCC(=O)NCCS(N)(=O)=O)c(C)c3)nc12 [Example 287] | 112
10 | CCCOc1nc(Cc2ccc(Cl)cc2)nc2oc(-c3ccc(OCC(O)CN)c(Cl)c3)nc12 (centres unmarked) [Example 207] | 302
11 | CCCOc1nc(Cc2ccc(Cl)cc2)nc2oc(-c3cc(C)c(OCC(=O)NCC4CC4)c(C)c3)nc12 [Example 254] | 86
12 | CCCOc1nc(Cc2ccc(Cl)cc2)nc2oc(-c3cc(C)c(OCC(=O)OCC)c(C)c3)nc12 [Example 233] | 79
13 | CCOc1nc(Cc2ccc(Cl)cc2)nc2oc(-c3cc(C)c(OCC(O)CSc4nnc(C5CC5)[nH]4)c(C)c3)nc12 (centres unmarked) [Example 281] | 79
14 | CCOc1nc(Cc2ccc(Cl)cc2)nc2oc(-c3cc(C)c(OCC(O)CS(=O)(=O)c4nnc(C(C)(C)C)[nH]4)c(C)c3)nc12 (centres unmarked) [Example 283] | 92
15 | CCOc1nc(Cc2ccc(Cl)cc2)nc2oc(-c3cc(C)c(OCC(=O)N[C@@H](CO)C(=O)O)c(C)c3)nc12 [Example 226] | 98
16 | CCOc1nc(Cc2ccc(Cl)cc2)nc2oc(-c3cc(C)c(OCCCS(=O)(=O)c4nnc(C5CC5)[nH]4)c(C)c3)nc12 [Example 274] | 120
17 | CCCOc1nc(Cc2ccc(Cl)cc2)nc2oc(-c3cc(C)c(OCCCN[C@@H](CCSC)C(=O)OC)c(C)c3)nc12 [Example 229] | 70

Continued, values first:

Row | % Activation (Edg-1 receptor activation in percent of the activation by 10 μM S1P) [%] | SMILES
18 | 87 | CCOc1nc(Cc2ccc(Cl)cc2)nc2oc(-c3cccc(OCC(=O)O)c3)nc12 [Example 310]
19 | 79 | CCCOc1nc(Cc2ccc(Cl)cc2)nc2oc(-c3cc(C)c(OCC4CC4)c(C)c3)nc12 [Example 315]
20 | 101 | CCOc1nc(Cc2ccc(Cl)cc2)nc2oc(-c3cccc(C)c3)nc12 [Example 117]
21 | 42 | CCCOc1nc(Cc2cc(OC)cc(OC)c2)nc2oc(-c3cccc(C)c3)nc12 [Example 166]
22 | 109 | CCCOc1nc(CN2CCSCC2)nc2oc(-c3cccc(F)c3)nc12 [Example 65]
23 | 73 | CCCOc1nc(Cc2ccc(C)cc2)nc2oc(-c3cccc(F)c3)nc12 [Example 136]
24 | 102 | CCCOc1nc(CN2C(=O)CCCC2=O)nc2oc(-c3cccc(F)c3)nc12 [Example 63]
25 | 75 | CCCOc1nc(Cc2ccc(Cl)cc2)nc2oc(-c3cncnc3)nc12 [Example 174]
26 | 95 | CCCOc1nc(CN2CCC(F)(F)CC2)nc2oc(-c3cc(F)ccc3Cl)nc12 [Example 22]
27 | 108 | CCCOc1nc(CC2CCC2)nc2oc(-c3cccc(C)c3)nc12 [Example 162]
28 | 73 | CCCOc1nc(CC2CCOCC2)nc2oc(-c3cccc(C)c3)nc12 [Example 159]
29 | 33 | CCCCOc1nc(Cc2ccc(Cl)cc2)nc2oc(-c3cccs3)nc12 [Example 115]
30 | 111 | CCCOc1nc(CN2CCC(F)(F)CC2)nc2oc(-c3c(F)ccc(F)c3F)nc12 [Example 83]
31 | 88 | CCCOc1nc(CN2CCOC[C@@H]2C)nc2oc(-c3cccc(F)c3)nc12 [Example 184]
32 | 93 | CCCOc1nc(CN2CCC(F)(F)CC2)nc2oc(-c3cccc(F)c3)nc12 [Example 33]
33 | 52 | CCOc1nc(Cc2ccc(Cl)cc2)nc2oc(-c3cccc(OCC(=O)NCCN4CCOCC4)c3)nc12 [Example 266]
34 | 102 | CCCOc1nc(Cc2ccc(Cl)cc2)nc2oc(-c3cc(C)cc(C)c3)nc12 [Example 149]
35 | 85 | CCCOc1nc(CN2CC(C)OC(C)C2)nc2oc(-c3cccc(F)c3)nc12 (centres unmarked) [Example 47]
36 | 104 | CCCOc1nc(Cc2ccc(Cl)cc2)nc2oc(-c3cc(C)c(OCC(=O)N4CC[C@H](O)C4)c(C)c3)nc12 [Example 231]
37 | 96 | CCCOc1nc(Cc2ccccc2)nc2oc(-c3cccc(O)c3)nc12 [Example 215]

Same assay, conditions: example compound at 10 μM; relative to 10 μM S1P; GTP-γ-S SPA, human Edg-1 membranes; read-out: % Activation (Edg-1 receptor activation in percent of the activation by 10 μM S1P)

Row | SMILES | activation at 10 µM [%]
38 | CCCOc1nc(Cc2ccc(Cl)cc2)nc2oc(-c3cc(C)c(OCC(=O)NCC(=O)O)c(C)c3)nc12 [Example 199, (2-{4-[5-(4-Chloro-benzyl)-7-propoxy-oxazolo[5,4-d]pyrimidin-2-yl]-2,6-dimethyl-phenoxy}-acetylamino)-acetic acid] | 112
39 | CCOc1nc(Cc2ccc(Cl)cc2)nc2oc(-c3cc(C)c(OCC(=O)NCC(=O)O)c(C)c3)nc12 [Example 240, (2-{4-[5-(4-chloro-benzyl)-7-ethoxy-oxazolo[5,4-d]pyrimidin-2-yl]-2,6-dimethyl-phenoxy}-acetylamino)-acetic acid] | 123

Further lines, results first:

Row | activation at 10 µM [%] | SMILES
40 | 79 | CCCOc1nc(Cc2ccc(Cl)cc2)nc2oc(-c3cc(C)c(OCCCN4CCOCC4)c(C)c3)nc12 [Example 200, 5-(4-Chloro-benzyl)-2-[3,5-dimethyl-4-(3-morpholin-4-yl-propoxy)-phenyl]-7-propoxy-oxazolo[5,4-d]pyrimidine]
41 | 119 | CCCOc1nc(C(C)c2ccccc2)nc2oc(-c3cccc(C)c3)nc12 (centres unmarked) [Example 13, 5-(1-Phenyl-ethyl)-7-propoxy-2-(3-methyl-phenyl)-oxazolo[5,4-d]pyrimidine]
